Marks after values point to notes of the source that are not given here.
Key:
[1] = tested on: mutant SOD1-overexpressing fish; assay: mutant SOD1-induced motor axonopathy in zebrafish embryos (percentage affected embryos, motor axon length); type: in vivo; conditions: 30 hpf
Text: FIG. 1: EphA4 knockdown rescues mutant SOD1-induced motor axonopathy. […] Abnormal branching is indicated with arrowhead. Y-axes show motor axon length of zebrafish embryos expressing wild-type SOD1 (black bar, Panels D-G) or mutant SOD1 (white bar, Panels D-G). Knockdown of RTK2 in SOD1A4V- (Panel D), SOD1G93A- (Panel E) and SOD1G37R- (Panel F) expressing fish was established by co-injection of increasing amounts of atg-RTK2 morpholino (shaded bars). RTK1 expression was inhibited in SOD1A4V-expressing fish by co-injection of atg-RTK1 morpholino (shaded bars, Panel G). Ctr-RTK2 and ctr-RTK1 were used as control. ANOVA and Bonferroni's multiple comparison tests were used for statistical analysis. Comparing axonal length in SOD1A4V fish injected with ctr-RTK2 (n=39) vs. different doses atg-RTK2: 3 ng (n=43, p=0.0059), 4.5 ng (n=37, p=0.0016, Panel D), SOD1G93A: ctr-RTK2 (n=60) vs. atg-RTK2: 1.5 ng (n=55, p=0.015), 3 ng (n=51, p=2.82×10-9), 4.5 ng (n=46, p=2.22×10-15, Panel E), SOD1G37R: ctr-RTK2 (n=37) vs. atg-RTK2: 3 ng (n=25, p=0.027), 4.5 ng (n=36, p=0.0018, Panel F) and SOD1A4V: ctr-RTK1 (n=49) vs. atg-RTK1: 1.5 ng (n=51, p=2.51×10-7), 3 ng (n=64, p=7.99×10-10), 4.5 ng (n=54, p<1×10-20, Panel G). Western blot of SOD1WT or SOD1A4V (1.76 ng) expressing zebrafish embryos (30 hpf), co-injected with either ctr-RTK1 or atg-RTK1 (4.5 ng). Sixty embryos were used per group with actin as the loading control (H). Immunostaining of rtk1 (green) in rhombomeres 3 and 5 and of ephrin-b2 (magenta) in rhombomere 4 in zebrafish embryos injected with either ctr-RTK1 or atg-RTK1 (4.5 ng). RTK1-depleted embryos show disorganized rhombomere boundaries (arrowhead, I, Scale bar 50 μm). Error bars are s.e.m.
FIG. 2: RTK2 knockdown protects motor axons against SOD1^A4V-induced injury. Effect of RTK2 knockdown, established by injection of splice-rtk2 morpholino, on the motor axon length of SOD1^A4V-expressing zebrafish embryos (30 hpf). SOD1^WT-expressing fish and a non-functional five-base pair-mismatch control morpholino (ctr-RTK2) were used as control (Panel A). ANOVA and Bonferroni's multiple comparison tests were used for statistical analysis: SOD1^A4V/ctr-RTK2 (n=56) vs. SOD1^A4V/spl-RTK2 (n=60, 1.79×10^−4). Spl-RTK2 was designed against the exon 2 splice site of the zebrafish RTK2 pre-mRNA and alternatively skipped out exon 2. RT-PCR on non-transgenic fish (lane 1), ctr-RTK2-injected fish (lane 2) and spl-RTK2-injected fish (lane 3) at 30 hpf. Functional RTK2 mRNA, containing exon 2, is indicated by the 818-bp product (upper band) while non-functional RTK2 mRNA, lacking exon 2 is indicated by the 156-bp product (lower band), 60 embryos each group (Panel B). Error bars are s.e.m.
FIG. 12: Pharmacological inhibition of EphA4 receptor signaling protects against mutant SOD1 pathology in vivo. Effect of treatment with Compound 1 (C1, 500 μM) on the motor axon length of zebrafish embryos (30 hpf). DMSO (1/250 dilution) was used as control (Panel A). ANOVA and Bonferroni's multiple comparison tests were used for statistical analysis: SOD1^A4V/C1 (n=68) vs. SOD1^A4V/DMSO (n=76, p=3.54×10^−5). Effect of KYL-peptide (3 mM) treatment of 60-day-old SOD1^G93A rats on disease onset (Panel B) and survival (Panel C). Artificial CSF (ACSF) was used as control. Average disease onset: 133 days (treated, n=21) versus 125 days (control, n=17, T-test p=0.044). Average survival: 148 days (treated, n=21) versus 139 days (controls, n=17, T-test p=0.041). Error bars are s.e.m.
Effect of RTK2 knockdown (established by injection of atg-RTK2 morpholino) on the percentage of affected wild-type SOD1 or mutant SOD1 (A4V, G93A, G37R) zebrafish embryos (30 hpf). Ctr-RTK2 morpholino was used as control. An embryo was considered as affected when it had more than 10% abnormally branched motor axons. Significance of mtSOD1/ctr-RTK2 (4.5 ng) vs. mtSOD1/atg-RTK2 (4.5 ng) was determined by Mann-Whitney test, * p=0.0075, ° p=0.039 and # p=0.0052. […]

[2] = tested on: non-transgenic or wild-type SOD1-expressing fish; assay: axonal and total body length in non-transgenic or wild-type SOD1-expressing fish; type: in vivo; conditions: zebrafish, average ± s.e.m.
Procedure: Y-axes show motor axon length of non-transgenic (black bar) or SOD1WT-expressing (white bar) zebrafish embryos, injected with either atg-RTK2 (shaded bars, Panel A) or atg-RTK1 morpholino (shaded bars, Panel B). Ctr-RTK2 and ctr-RTK1 were used as controls. Error bars are s.e.m.
To identify disease-modifying genes in ALS in an unbiased way, knockdown screening was performed in the mutant SOD1 zebrafish model (reference 13), using a library of 303 translation blocking morpholinos (atg-mo), of which 58 were targeting genes presumed to be neuronally expressed (according to the NCBI database) and 245 randomly chosen targeting genes. […] The morpholino yielding the highest rescue in two separate experiments was studied further. It targets zebrafish receptor tyrosine kinase 2 (RTK2, also known as epha4b), which has 67% identity and 80% homology to the human orthologue EPHA4. Knockdown of RTK2 in fish expressing mutant SOD1 completely and dose-dependently rescued the motor axonopathy (both axonal length and aberrant branching) caused by three different SOD1 mutations: A4V, G93A and G37R (FIG. 1, Panels A-F; Table 2). […] Receptor tyrosine kinase 1 (RTK1, also known as epha4a), the fish paralogue of RTK2, has 83% identity and 92% homology to human EPHA4. RTK1 knockdown was dose-dependently and equally protective as RTK2 knockdown (FIG. 1, Panel G; Table 4). […]

[3] = target: EphA4 (Homo sapiens, UniProt P54764); conditions: Noberini et al.; cited from earlier work
Sequence of EphA4 (P54764 20-986, species assumed): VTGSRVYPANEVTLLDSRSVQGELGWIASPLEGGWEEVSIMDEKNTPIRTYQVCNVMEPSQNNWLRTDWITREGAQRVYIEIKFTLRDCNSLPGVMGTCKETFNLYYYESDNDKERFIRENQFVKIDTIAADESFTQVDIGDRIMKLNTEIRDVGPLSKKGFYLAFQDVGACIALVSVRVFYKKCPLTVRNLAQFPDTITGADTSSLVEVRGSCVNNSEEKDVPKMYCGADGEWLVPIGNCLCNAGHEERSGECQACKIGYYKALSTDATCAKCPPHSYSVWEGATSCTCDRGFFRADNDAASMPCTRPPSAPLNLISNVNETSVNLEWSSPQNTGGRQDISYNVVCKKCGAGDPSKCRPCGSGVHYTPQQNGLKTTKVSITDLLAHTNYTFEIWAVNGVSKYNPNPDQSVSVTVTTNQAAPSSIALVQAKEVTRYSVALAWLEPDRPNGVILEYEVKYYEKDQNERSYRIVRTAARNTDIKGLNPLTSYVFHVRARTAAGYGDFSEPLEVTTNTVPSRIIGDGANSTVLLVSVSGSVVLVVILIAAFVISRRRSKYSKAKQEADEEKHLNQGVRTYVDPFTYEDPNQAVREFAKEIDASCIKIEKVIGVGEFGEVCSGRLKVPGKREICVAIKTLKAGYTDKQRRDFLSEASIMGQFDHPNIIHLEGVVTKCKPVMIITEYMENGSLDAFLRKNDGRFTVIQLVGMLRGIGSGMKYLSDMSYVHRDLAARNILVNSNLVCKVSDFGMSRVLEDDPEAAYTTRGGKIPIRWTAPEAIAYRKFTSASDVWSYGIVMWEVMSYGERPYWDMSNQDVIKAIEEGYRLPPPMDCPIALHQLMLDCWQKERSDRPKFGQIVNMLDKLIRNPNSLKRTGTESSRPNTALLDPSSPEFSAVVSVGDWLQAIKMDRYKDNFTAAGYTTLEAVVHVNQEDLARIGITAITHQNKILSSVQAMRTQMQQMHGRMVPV

Compound | % affected embryos (more than 10% abnormally branched motor axons) ([1]; mtSOD1 A4V zebrafish embryos, morpholino 1.5 ng) | % affected embryos (more than 10% abnormally branched motor axons) ([1]; mtSOD1 A4V zebrafish embryos, morpholino 3.0 ng) | % affected embryos (more than 10% abnormally branched motor axons) ([1]; mtSOD1 A4V zebrafish embryos, morpholino 4.5 ng) | % affected embryos (more than 10% abnormally branched motor axons) ([1]; mtSOD1 G37R zebrafish embryos, morpholino 1.5 ng) | % affected embryos (more than 10% abnormally branched motor axons) ([1]; mtSOD1 G37R zebrafish embryos, morpholino 3.0 ng) | % affected embryos (more than 10% abnormally branched motor axons) ([1]; mtSOD1 G37R zebrafish embryos, morpholino 4.5 ng) | % affected embryos (more than 10% abnormally branched motor axons) ([1]; mtSOD1 G93A zebrafish embryos, morpholino 1.5 ng) | % affected embryos (more than 10% abnormally branched motor axons) ([1]; mtSOD1 G93A zebrafish embryos, morpholino 3.0 ng) | % affected embryos (more than 10% abnormally branched motor axons) ([1]; mtSOD1 G93A zebrafish embryos, morpholino 4.5 ng) [° %] | % affected embryos (more than 10% abnormally branched motor axons) ([1]; wtSOD1 zebrafish embryos, morpholino 4.5 ng) [%] | body length [2] [mm] | inhibition of ephrin binding to EphA4 [3]
5′-AATCCAAAGGGTAGCCA-TTTTCAGG-′3 (antisense AATCCAAAGGGTAGCCATTTTCAGG; morpholino, chemistry not fully specified) [atg-RTK2] | 29 (41) % | 18 (44) % | 8* % | 34 (26) % | 8 (25) % | 16# % | 55 (47) % | 50 (54) % | 23 | 12 | 2.70±0.01 | –
Cc1ccc(C)n1-c1ccc(O)c(C(=O)O)c1 [compound 2] | – | – | – | – | – | – | – | – | – | – | – | selectively inhibit ephrin binding to EphA4
